Laboratory results: patent US20180200257A1, “METHODS FOR THE TREATMENT OF INFLAMMATORY DISORDERS” (Galapagos NV, priority 2015, published 2018)

System: subjects with moderately to severely active RA who have an inadequate response to methotrexate (MTX)
Experiment: Study 2 (monotherapy) - DAS28(CRP) scores
Assay type: in vivo, human
Excerpt: Randomized, double-blind, placebo-controlled, multicenter, phase IIb dose finding study of Compound 1 (dosed as a [Compound 1:HCl:3H2O]) administered for 24 weeks as monotherapy to subjects with moderately to severely active rheumatoid arthritis who have an inadequate response to methotrexate alone
Double-blind, placebo-controlled, monotherapy study in subjects with moderately to severely active RA who have an inadequate response to methotrexate (MTX) (oral or parenteral).
280 subjects randomized to one of 3 doses of Compound 1 (dosed as a [Compound 1:HCl:3H2O]) or to placebo, given once daily (q.d.).
Twelve weeks of treatment with Compound 1 (dosed as a [Compound 1:HCl:3H2O]) at 50 mg, 100 mg, or 200 mg q.d.; or placebo. At Week 12, all subjects on placebo and the subjects on the 50 mg dose who have not achieved 20% improvement in swollen joint count (SJC66) and tender joint count (TJC68) will be assigned to 100 mg q.d. in a blinded fashion and will continue treatment until Week 24. Subjects in the other groups will maintain their randomized treatment until Week 24.
The (DAS28(CRP)) is a system developed and validated by the European League Against Rheumatism (EULAR) to measure the progress and improvement of rheumatoid arthritis and has been extensively validated (Wells et al., 2008). The DAS28(CRP) scoring includes a 28 tender and swollen joint count, CRP measurement from blood analysis, and a general health assessment on a visual analog scale (Fransen et al., 2003).
DAS28(CRP) values range from 2.0 to 10.0, and more particularly reflect the following status: • Remission: DAS28(CRP) ≤2.6 • Low Disease activity: 2.6 <DAS28(CRP) ≤3.2 • Moderate Disease Activity: 3.2 <DAS28(CRP) ≤5.1 • High Disease Activity: DAS28(CRP) >5.1
In practice, the DAS28(CRP) measurement involves the evaluation 28 different joints including in the measurement (proximal interphalangeal joints (10 joints), metacarpophalangeal joints (10), wrists (2), elbows (2), shoulders (2), and knees (2)). When looking at these joints, both the number of joints with tenderness upon touching and swelling are counted.
Secondly, C-reactive protein level is measured.
Finally, the patient makes a subjective assessment of disease activity during the preceding 7 days on a scale between 0 and 100, where 0 is “no activity” and 100 is “highest activity possible”.
The DAS28(CRP) score is then calculated as follows:
Firstly, the patient is asked to make a vertical mark on a 100 mm Visual Analog Scale (VAS) corresponding to their general health or global disease activity on a touch screen to measure the VAS value, which is used in the formula below.
Secondly, a swollen and tender joint examination is then performed on the patient. The swollen and tender joints are recorded. From this examination are obtained the total amount of swollen joints (SJC) and the total amount of tender joints (TJC), which are used in the formula below.
Thirdly, C-reactive protein (CRP) levels are measured.
Finally, the values obtained above (VAS, TJC28, SJC28, and CRP) are computed into the following Formula to obtain the DAS28(CRP) score.
DAS28(CRP)=0.56*√{square root over (TJC28)}+0.28√{square root over (SJC28)}+[…] ln(CRP+1)+0.014*VAS
The improvement (decreases) in the DAS28(CRP) scores for each patient group at weeks 1, 2, 4, 8 and 12 is shown in Table LXXXVII and Table LXXXVIII below, together with the Hommel-corrected p-value for the pairwise comparisons of each group with placebo.
The number of subjects (N) provided in each groups corresponds to the number of subjects starting the study in each group, and the DAS28 (CRP) data reported below corresponds to the responding subjects continuing for the entire 24 weeks on their initial treatment course.

SMILES: O=C(Nc1nc2cccc(-c3ccc(CN4CCS(=O)(=O)CC4)cc3)n2n1)C1CC1 [Compound 1, cyclopropanecarboxylic acid {5-[4-(1,1-dioxo-thiomorpholin-4-ylmethyl)-phenyl]-[1,2,4]triazolo[1,5-a]pyridin-2-yl}-amide]
- DAS28(CRP) mean CFB (LOCF) (50 mg q.d., week 1, 12 weeks results): −0.70
- DAS28(CRP) mean CFB (LOCF) (50 mg q.d., week 2, 12 weeks results): −0.97
- DAS28(CRP) mean CFB (LOCF) (50 mg q.d., week 2, 24 weeks results): −1.03
- DAS28(CRP) mean CFB (LOCF) (50 mg q.d., week 4, 12 weeks results): −1.37
- DAS28(CRP) mean CFB (LOCF) (50 mg q.d., week 4, 24 weeks results): −1.43
- DAS28(CRP) mean CFB (LOCF) (50 mg q.d., week 12, 12 weeks results): −1.69
- % patients reaching low disease activity and/or remission at week 12 (LOCF) (50 mg q.d., 12 weeks results): 24%
- % patients reaching low disease activity at week 12 (LOCF) (50 mg q.d., 12 weeks results): 13%
- % patients reaching remission at week 12 (LOCF) (50 mg q.d., 12 weeks results): 11%
- % patients reaching low disease activity and/or remission at week 24 (LOCF) (50 mg q.d., 24 weeks results): 36%
- % patients reaching low disease activity at week 24 (LOCF) (50 mg q.d., 24 weeks results): 17%
- % patients reaching remission at week 24 (LOCF) (50 mg q.d., 24 weeks results): 19%
- DAS28(CRP) mean CFB (LOCF) (50 mg q.d., week 8, 12 weeks results): −1.65
- DAS28(CRP) mean CFB (LOCF) (50 mg q.d., week 8, 24 weeks results): −1.71
- DAS28(CRP) mean CFB (LOCF) (100 mg q.d., week 1, 12 weeks results): −0.88
- DAS28(CRP) mean CFB (LOCF) (100 mg q.d., week 2, 12 weeks results): −1.04
- DAS28(CRP) mean CFB (LOCF) (100 mg q.d., week 2, 24 weeks results): −1.04
- DAS28(CRP) mean CFB (LOCF) (100 mg q.d., week 4, 12 weeks results): −1.50
- DAS28(CRP) mean CFB (LOCF) (100 mg q.d., week 4, 24 weeks results): −1.48
- DAS28(CRP) mean CFB (LOCF) (100 mg q.d., week 12, 12 weeks results): −2.04
- % patients reaching low disease activity and/or remission at week 12 (LOCF) (100 mg q.d., 12 weeks results): 28%
- % patients reaching low disease activity at week 12 (LOCF) (100 mg q.d., 12 weeks results): 13%
- % patients reaching remission at week 12 (LOCF) (100 mg q.d., 12 weeks results): 14%
- % patients reaching low disease activity and/or remission at week 24 (LOCF) (100 mg q.d., 24 weeks results): 50%
- % patients reaching low disease activity at week 24 (LOCF) (100 mg q.d., 24 weeks results): 29%
- % patients reaching remission at week 24 (LOCF) (100 mg q.d., 24 weeks results): 21%
- DAS28(CRP) mean CFB (LOCF) (100 mg q.d., week 8, 12 weeks results): −1.91
- DAS28(CRP) mean CFB (LOCF) (200 mg q.d., week 1, 12 weeks results): −1.15
- DAS28(CRP) mean CFB (LOCF) (200 mg q.d., week 2, 12 weeks results): −1.54
- DAS28(CRP) mean CFB (LOCF) (200 mg q.d., week 2, 24 weeks results): −1.55
- DAS28(CRP) mean CFB (LOCF) (200 mg q.d., week 4, 12 weeks results): −1.87
- DAS28(CRP) mean CFB (LOCF) (200 mg q.d., week 4, 24 weeks results): −1.87
- DAS28(CRP) mean CFB (LOCF) (200 mg q.d., week 12, 12 weeks results): −2.33
- % patients reaching low disease activity and/or remission at week 12 (LOCF) (200 mg q.d., 12 weeks results): 45%
- % patients reaching low disease activity at week 12 (LOCF) (200 mg q.d., 12 weeks results): 28%
- % patients reaching remission at week 12 (LOCF) (200 mg q.d., 12 weeks results): 17%
- % patients reaching low disease activity and/or remission at week 24 (LOCF) (200 mg q.d., 24 weeks results): 46%
- % patients reaching low disease activity at week 24 (LOCF) (200 mg q.d., 24 weeks results): 19%
- % patients reaching remission at week 24 (LOCF) (200 mg q.d., 24 weeks results): 28%
- DAS28(CRP) mean CFB (LOCF) (200 mg q.d., week 8, 12 weeks results): −2.24
